± gives the uncertainty stated by the source.
Experiment: xn = mol fraction of the nth substance listed

C=C(C)C(=O)OC + Cc1ccccc1
303.15 K, 101 kPa
Conditions | viscosity [mPa·s]
x1 = 0.1041 | 0.5201 ± 0.0058
x1 = 0.2049 | 0.5187 ± 0.0058
x1 = 0.4069 | 0.5163 ± 0.0058
x1 = 0.5046 | 0.5155 ± 0.0058
x1 = 0.6068 | 0.5148 ± 0.0058
x1 = 0.798 | 0.5141 ± 0.0058
x1 = 0.896 | 0.5141 ± 0.0058

ClCCCCCCCl + Cc1ccccc1
viscosity [mPa·s], 101 kPa
Conditions | x1 = 0.07864 | x1 = 0.1578 | x1 = 0.2467 | x1 = 0.3346 | x1 = 0.4309 | x1 = 0.533 | x1 = 0.6475 | x1 = 0.755 | x1 = 0.8707
308.15 K | 0.536 ± 0.011 | 0.604 ± 0.013 | 0.676 ± 0.014 | 0.764 ± 0.016 | 0.868 ± 0.018 | 0.978 ± 0.021 | 1.121 ± 0.024 | 1.267 ± 0.027 | 1.44 ± 0.031
313.15 K | 0.514 ± 0.011 | 0.57 ± 0.012 | 0.639 ± 0.013 | 0.712 ± 0.015 | 0.807 ± 0.017 | 0.911 ± 0.019 | 1.043 ± 0.022 | 1.175 ± 0.025 | 1.345 ± 0.029
318.15 K | 0.49 ± 0.01 | 0.543 ± 0.011 | 0.605 ± 0.013 | 0.682 ± 0.014 | 0.769 ± 0.016 | 0.865 ± 0.018 | 0.983 ± 0.021 | 1.095 ± 0.023 | 1.228 ± 0.026

ClCCCCCCCl + Cc1ccccc1C
viscosity [mPa·s], 101 kPa
Conditions | x1 = 0.09207 | x1 = 0.1778 | x1 = 0.2577 | x1 = 0.3658 | x1 = 0.469 | x1 = 0.5509 | x1 = 0.6697 | x1 = 0.7481 | x1 = 0.8853
308.15 K | 0.731 ± 0.016 | 0.797 ± 0.017 | 0.859 ± 0.018 | 0.954 ± 0.02 | 1.049 ± 0.022 | 1.131 ± 0.024 | 1.253 ± 0.027 | 1.336 ± 0.029 | 1.493 ± 0.032
313.15 K | 0.689 ± 0.015 | 0.75 ± 0.016 | 0.809 ± 0.017 | 0.901 ± 0.019 | 0.994 ± 0.021 | 1.073 ± 0.023 | 1.191 ± 0.025 | 1.272 ± 0.027 | 1.419 ± 0.03
318.15 K | 0.652 ± 0.014 | 0.708 ± 0.015 | 0.767 ± 0.016 | 0.848 ± 0.018 | 0.932 ± 0.02 | 1.001 ± 0.021 | 1.1 ± 0.024 | 1.169 ± 0.025 | 1.287 ± 0.027

CC1(c2ccccc2)OC1C#N (centres undefined) + ClC(Cl)(Cl)Cl
101 kPa, x1 = 0.024
Conditions | viscosity [mPa·s]
293.15 K | 1.041 ± 0.027
298.15 K | 0.964 ± 0.025
303.15 K | 0.902 ± 0.024
313.15 K | 0.8 ± 0.1
323.15 K | 0.723 ± 0.019

C=C(C)C(=O)OC + ClC(Cl)Cl
303.15 K, 101 kPa
Conditions | viscosity [mPa·s]
x1 = 0.0522 | 0.5364 ± 0.0059
x1 = 0.1301 | 0.5505 ± 0.0059
x1 = 0.3102 | 0.5767 ± 0.0061
x1 = 0.4132 | 0.5808 ± 0.0061
x1 = 0.5161 | 0.5747 ± 0.0061
x1 = 0.7435 | 0.5589 ± 0.006
x1 = 0.8591 | 0.542 ± 0.0059

CCCC[n+]1ccn(C)c1.O=C([O-])C(F)(F)F + ClC(Cl)Cl
Conditions | viscosity [mPa·s]
298.15 K, 101 kPa, x2 = 0.6467 | 9.74 ± 1.1

C=C(C)C(=O)OC + ClCCCl
303.15 K, 101 kPa
Conditions | viscosity [mPa·s]
x1 = 0.1012 | 0.6868 ± 0.0067
x1 = 0.1978 | 0.6544 ± 0.0065
x1 = 0.3975 | 0.6068 ± 0.0062
x1 = 0.4985 | 0.5867 ± 0.0061
x1 = 0.6234 | 0.5632 ± 0.006
x1 = 0.8713 | 0.5284 ± 0.0058

CC(N)(CO)CO + O
viscosity [mPa·s], 101.3 kPa
Conditions | 303.15 K | 313.15 K | 323.15 K
x1 = 0.019 | 1.127 ± 0.009 | 0.9018 ± 0.007 | 0.7417 ± 0.0059
x1 = 0.041 | 1.683 ± 0.013 | 1.307 ± 0.01 | 1.045 ± 0.008
x1 = 0.068 | 2.681 ± 0.021 | 1.999 ± 0.016 | 1.567 ± 0.012
